A short description of series [1]: Log P.
For series [2], the system named is green peach aphid (Myzus persicae). Kind of series: Myzus test (MYZUPE), spray treatment. Type of series: in vivo. The following applies: 20 g/ha. On the procedure: [table] To produce a suitable preparation of active compound, 1 part by weight of active compound is mixed with the stated amounts of solvent and emulsifier, and the concentrate is diluted with emulsifier-containing water to the desired concentration. Disks of Chinese cabbage (Brassica pekinensis) which are infested with all stages of the green peach aphid (Myzus persicae) are sprayed with a preparation of active compound of the desired concentration. After the desired period of time, the effect in % is determined. 100% means that all aphids have been killed; 0% means that none of the aphids have been killed. [table] To produce a suitable preparation of active compound, 1 part by weight of active compound is mixed with the stated amounts of solvent and emulsifier, and the concentrate is diluted with emulsifier-containing water to the desired concentration. Disks of Chinese cabbage (Brassica pekinensis) which are infested with all stages of the green peach aphid (Myzus persicae) are sprayed with a preparation of active compound of the desired concentration. After the desired period of time, the effect in % is determined. 100% means that all aphids have been killed; 0% means that none of the aphids have been killed.

Series [3] concerns greenhouse red spider mite (Tetranychus urticae). Kind of series: Tetranychus test, OP-resistant (TETRUR), spray treatment. Type of series: in vivo. As to conditions: 100 g/ha. As for the experimental part: To produce a suitable preparation of active compound, 1 part by weight of active compound is mixed with the stated amounts of solvents and emulsifier, and the concentrate is diluted with emulsifier-containing water to the desired concentration.
Discs of bean leaves (Phaseolus vulgaris) which are infested by all stages of the greenhouse red spider mite (Tetranychus urticae) are sprayed with a preparation of active compound of the desired concentration.
After the desired period of time, the effect in % is determined. 100% means that all spider mites have been killed; 0% means that none of the spider mites have been killed.

Turning to `CC(NC(=O)NCCCl)c1ccccc1Cl` (stereo not drawn) [1-(2-chloroethyl)-3-[1-(2-chlorophenyl)ethyl]urea], the logP (commonly a log measure of how a compound divides between an organic and an aqueous phase) in series [1] came to 2.3.

`C[C@H](NC(=O)NCCCl)c1ccccc1` [1-(2-chloroethyl)-3-[(1S)-1-phenylethyl]urea] displayed a logP in series [1] of 1.76.

Turning to `COCCNC(=S)N1CCOC1=NC(C)c1ccccc1` (stereo not drawn) [Compound 2], the “1. MYZUPE spray appl. % 6 d” value in series [2] came out at 100%. For the same compound, in series [3], the “2. TETRUR spray appl. % 6 d” value was 90%.

Take `CC(N=C1OCCN1C(=S)NCC(F)(F)F)c1ccccc1` (stereo not drawn) [Compound 3]: the “1. MYZUPE spray appl. % 6 d” value in series [2] is 100%. Also, in series [3], the “2. TETRUR spray appl. % 6 d” value turned out to be 70%.

The compound `COCCNC(=S)N1CCO/C1=N\C(C)c1ccccc1Cl` (stereo not drawn) [Compound 10, (2Z)-2-{[1-(2-chlorophenyl)ethyl]imino}-N-(2-methoxyethyl)-1,3-oxazolidine-3-carbothioamide] showed a logP in series [1] of 4.08.

For the compound `C[C@H](/N=C1\OCCN1C(=S)NCC#N)c1ccccc1` [Compound 94, (2Z)—N-(cyanomethyl)-2-[(1-phenylethyl)imino]-1,3-oxazolidine-3-carbothioamide], in series [1], the logP is 3.07.

As to `CCC(N=C1OCCN1C(=S)NCc1ccccc1)c1ccccc1` (stereo not drawn) [compound 68], the “log P (acidic)” value in series [1] (acidic, Phys. Data cells marked (C)) is recorded as 4.68 (C).

The values are drawn from patent US20110124647A1, “INSECTICIDAL DERIVATIVES OF SUBSTITUTED BENZYLAMINES” (priority 2007, published 2011).
